From patent US20100197724A1, “6.5 -PYRROLOPIPERIDINE TACHYKININ RECEPTOR ANTAGONISTS” (priority 2007, published 2010)
pIC50: −log10 of the molar value.

Biological target: T1, human neurokinin-1 receptor (NK1R) (Homo sapiens, UniProt P25103)
T1 construct: expressed in transfected cells
Experiment: 125I-substance P binding assay of human NK1R expressed in COS or CHO cells
Conditions: competition with 125I-substance P
Protocol: Receptor Expression in COS: To express the cloned human neurokinin-1 receptor (NK1R) transiently in COS, the cDNA for the human NK1R was cloned into the expression vector pCDM9 which was derived from pCDM8 (INVITROGEN) by inserting the ampicillin resistance gene (nucleotide 1973 to 2964 from BLUESCRIPT SK+) into the Sac II site. Transfection of 20 ug of the plasmid DNA into 10 million COS cells was achieved by electroporation in 800 ul of transfection buffer (135 mM NaCl, 1.2 mM CaCl2, 1.2 mM MgCl2, 2.4 mM K2HPO4, 0.6 mM KH2PO4, 10 mM glucose, 10 mM HEPES pH 7.4) at 260 V and 950 uF using the IBI GENEZAPPER (IBI, New Haven, Conn.). The cells were incubated in 10% fetal calf serum, 2 mM glutamine, 100 U/ml penicillin-streptomycin, and 90% DMEM media (GIBCO, Grand Island, N.Y.) in 5% CO2 at 37° C. for three days before the binding assay.
Stable Expression in CHO: To establish a stable cell line expressing the cloned human NK1R, the cDNA was subcloned into the vector pRcCMV (INVITROGEN). Transfection of 20 ug of the plasmid DNA into CHO cells was achieved by electroporation in 800 ul of transfection buffer supplemented with 0.625 mg/ml Herring sperm DNA at 300 V and 950 uF using the IBI GENEZAPPER (IBI). The transfected cells were incubated in CHO media [10% fetal calf serum, 100 U/ml penicillin-streptomycin, 2 mM glutamine, 1/500 hypoxanthine-thymidine (ATCC), 90% IMDM media (JRH BIOSCIENCES, Lenexa, Kans.), 0.7 mg/ml G418 (GIBCO)] in 5% CO2 at 37° C. until colonies were visible. Each colony was separated and propagated. The cell clone with the highest number of human NK1R was selected for subsequent applications such as drug screening.
Assay Protocol using COS or CHO: The binding assay of human NK1R expressed in either COS or CHO cells is based on the use of ^125I-substance P (^125I-SP, from DU PONT, Boston, Mass.) as a radioactively labeled ligand which competes with unlabeled substance P or any other ligand for binding to the human NK1R. Monolayer cell cultures of COS or CHO were dissociated by the non-enzymatic solution (SPECIALTY MEDIA, Lavallette, N.J.) and resuspended in appropriate volume of the binding buffer (50 mM Tris pH 7.5, 5 mM MnCl2, 150 mM NaCl, 0.04 mg/ml bacitracin, 0.004 mg/ml leupeptin, 0.2 mg/ml BSA, 0.01 mM phosphoramidon) such that 200 ul of the cell suspension would give rise to about 10,000 cpm of specific ^125I-SP binding (approximately 50,000 to 200,000 cells). In the binding assay, 200 ul of cells were added to a tube containing 20 ul of 1.5 to 2.5 nM of ^125I-SP and 20 ul of unlabeled substance P or any other test compound. The tubes were incubated at 4° C. or at room temperature for 1 hour with gentle shaking. The bound radioactivity was separated from unbound radioactivity by GF/C filter (BRANDEL, Gaithersburg, Md.) which was pre-wetted with 0.1% polyethylenimine. The filter was washed with 3 ml of wash buffer (50 mM Tris pH 7.5, 5 mM MnCl2, 150 mM NaCl) three times and its radioactivity was determined by gamma counter. The activation of phospholipase C by NK1R may also be measured in CHO cells expressing the human NK1R by determining the accumulation of inositol monophosphate which is a degradation product of IP3. CHO cells are seeded in 12-well plate at 250,000 cells per well. After incubating in CHO media for 4 days, cells are loaded with 0.025 uCi/ml of ^3H-myoinositol by overnight incubation. The extracellular radioactivity is removed by washing with phosphate buffered saline. LiCl is added to the well at final concentration of 0.1 mM with or without the test compound, and incubation is continued at 37° C. for […]. Substance P is added to the well at final concentration of 0.3 nM to activate the human NK1R. After 30 min of incubation at 37° C., the media is removed and 0.1 N HCl is added. Each well is sonicated at 4° C. and extracted with CHCl3/methanol (1:1). The aqueous phase is applied to a 1 ml Dowex AG 1X8 ion exchange column. […]

T1 sequence (P25103 whole entry): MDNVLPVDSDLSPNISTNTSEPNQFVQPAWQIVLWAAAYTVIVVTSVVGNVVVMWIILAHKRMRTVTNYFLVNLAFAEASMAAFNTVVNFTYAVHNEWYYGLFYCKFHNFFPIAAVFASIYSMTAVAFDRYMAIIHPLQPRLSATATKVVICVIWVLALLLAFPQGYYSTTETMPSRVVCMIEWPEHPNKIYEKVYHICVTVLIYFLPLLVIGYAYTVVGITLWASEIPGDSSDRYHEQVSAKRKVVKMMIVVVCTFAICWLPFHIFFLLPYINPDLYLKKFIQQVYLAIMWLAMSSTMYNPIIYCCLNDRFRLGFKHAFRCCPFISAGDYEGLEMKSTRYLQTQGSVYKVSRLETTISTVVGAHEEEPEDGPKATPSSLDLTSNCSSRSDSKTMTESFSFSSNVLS

Row | pIC50 | SMILES
1 | 9.73 | Cc1ccccc1[C@H]1[C@@H]2CN(C(=O)C3CCN(C(N)=O)CC3)C[C@H]2CCN1C(=O)N(C)[C@H](C)c1cc(C(F)(F)F)cc(C(F)(F)F)c1 [Example 20, (3aS,4R,7aS)-2-{[1-(aminocarbonyl)piperidin-4-yl]carbonyl}-N-{(1R)-1-[3,5-bis(trifluoromethyl)phenyl]ethyl}-N-methyl-4-(2-methylphenyl)octahydro-5H-pyrrolo[3,4-c]pyridine-5-carboxamide]
2 | 10.08 | Cc1ccccc1[C@H]1C2CN(C3=CC(=O)OC3)C[C@H]2CCN1C(=O)N(C)[C@H](C)c1cc(C(F)(F)F)cc(C(F)(F)F)c1 (stereo partly drawn) [Example 13, (3aS,4R aS)-N-{(1R)-1-[3,5-bis(trifluoromethyl)phenyl]ethyl}-N-methyl-4-(2-methylphenyl)-2-(5-oxo-2,5-dihydrofuran-3-yl)octahydro-5H-pyrrolo[3,4-c]pyridine-5-carboxamide]
3 | 9.60 | CC(C(=O)N1CC[C@@H]2CN(C3=CC(=O)CC3)CC2[C@@H]1c1ccc(F)cc1)c1cc(C(F)(F)F)cc(C(F)(F)F)c1 (mixture of isomers) [Example 2, 3-[(3aSR,4RS,7aSR)-5-{2-[3,5-bis(trifluoromethyl)phenyl]propanoyl}-4-(4-fluorophenyl)octahydro-2H-pyrrolo[3,4-c]pyridin-2-yl]cyclopent-2-en-1-one]
4 | 10.37 | Cc1ccccc1[C@H]1C2CN(C3=NC(=O)CO3)C[C@H]2CCN1C(=O)N(C)[C@H](C)c1cc(C(F)(F)F)cc(C(F)(F)F)c1 (stereo partly drawn) [Example 12]
5 | 10.39 | Cc1ccccc1[C@H]1[C@@H]2CNC[C@H]2CCN1C(=O)N(C)[C@H](C)c1cc(C(F)(F)F)cc(C(F)(F)F)c1 [Example 9, (3aS,4R,7aS)-N-{(1R)-1-[3,5-bis(trifluoromethyl)phenyl]ethyl}-N-methyl-4-(2-methylphenyl)octahydro-5H-pyrrolo[3,4-c]pyridine-5-carboxamide]
6 | 10.22 | Cc1ccccc1[C@H]1[C@@H]2CN(C(N)=O)C[C@H]2CCN1C(=O)N(C)[C@H](C)c1cc(C(F)(F)F)cc(C(F)(F)F)c1 [Example 11, (3aS,4R,7aS)-N^5-{(1R)-1-[3,5-bis(trifluoromethyl)phenyl]ethyl}-N^5-methyl-4-(2-methylphenyl)tetrahydro-1H-pyrrolo[3,4-c]pyridine-2,5(3H,4H)-dicarboxamide]
7 | 9.28 | CC(c1cc(C(F)(F)F)cc(C(F)(F)F)c1)N(C)C(=O)N1CC[C@@H]2CN(C(=O)C3CCOCC3)C[C@H]2[C@@H]1c1ccc(F)cc1 (mixture of isomers) [Example 7, (3aSR,4RS,7aSR)-N-{1-[3,5-bis(trifluoromethyl)phenyl]ethyl}-4-(4-fluorophenyl)-N-methyl-2-(tetrahydro-2H-pyran-4-ylcarbonyl)octahydro-5H-pyrrolo[3,4-c]pyridine-5-carboxamide]
8 | 10.17 | CC(=O)N1CC2[C@H](CCN(C(=O)N(C)[C@H](C)c3cc(C(F)(F)F)cc(C(F)(F)F)c3)[C@H]2c2ccccc2C)C1 (stereo partly drawn) [Example 18, (3aS,4R,7aS)-2-acetyl-N{(1R)-1-[3,5-bis(trifluoromethyl)phenyl]ethyl}-N-methyl-4-(2-methylphenyl)octahydro-5H-pyrrolo[3,4-c]pyridine-5-carboxamide]
9 | 10.07 | Cc1ccccc1[C@H]1[C@@H]2CN(C3CCOCC3)C[C@H]2CCN1C(=O)N(C)[C@H](C)c1cc(C(F)(F)F)cc(C(F)(F)F)c1 [Example 21, (3aS,4R,7aS)-N-{(1R)-1-[3,5-bis(trifluoromethyl)phenyl]ethyl}-N-methyl-4-(2-methylphenyl)-2-(tetrahydro-2H-pyran-4-yl)octahydro-5H-pyrrolo[3,4-c]pyridine-5-carboxamide]
10 | 10.51 | Cc1cc(F)ccc1[C@H]1C2CNC[C@H]2CCN1C(=O)N(C)[C@H](C)c1cc(C(F)(F)F)cc(C(F)(F)F)c1 (stereo partly drawn) [Example 26, (3aS,4R,7aS)-N-{(1R)-1-[3,5-bistrifluoromethyl)phenyl]ethyl}-4-(4-fluoro-2-methylphenyl-N-methyloctahydro-5H-pyrrolo[3,4-c]pyridine-5-carboxamide]
11 | 10.05 | Cc1ccccc1[C@H]1[C@@H]2CN(C(=O)C3CCC(=O)N(C)C3)C[C@H]2CCN1C(=O)N(C)[C@H](C)c1cc(C(F)(F)F)cc(C(F)(F)F)c1 (stereo partly drawn) [Example 19, (3aS,4R,7aS)-N-{(1R)-1-[3,5-bis(trifluoromethyl)phenyl]ethyl}-N-methyl-2-[(1-methyl-6-oxopiperidin-3-yl)carbonyl]-4-(2-methylphenyl)octahydro-5H-pyrrolo[3,4-c]pyridine-5-carboxamide]
12 | 10.36 | Cc1ccccc1[C@H]1[C@@H]2CN(C(C)C)C[C@H]2CCN1C(=O)N(C)[C@H](C)c1cc(C(F)(F)F)cc(C(F)(F)F)c1 [Example 14, (3aS,4R,7aS)-N-{(1R)-1-[3,5-bis(trifluoromethyl)phenyl]ethyl}-2-isopropyl-N-methyl-4-(2-methylphenyl)octahydro-5H-pyrrolo[3,4-c]pyridine-5-carboxamide]
13 | 9.82 | Cc1ccccc1[C@H]1[C@@H]2CN(CC(=O)O)C[C@H]2CCN1C(=O)N(C)[C@H](C)c1cc(C(F)(F)F)cc(C(F)(F)F)c1 [Example 16, [(3aS,4R,7aS)-5-{[{(1R)-1-[3,5-bis(trifluoromethyl)phenyl]ethyl}(methyl)amino]carbonyl}-4-(2-methylphenyl)octahydro-2H-pyrrolo[3,4-c]pyridin-2-yl]acetic acid]
14 | 10.05 | CC(=O)N1CCC(N2C[C@H]3CCN(C(=O)N(C)[C@H](C)c4cc(C(F)(F)F)cc(C(F)(F)F)c4)[C@@H](c4ccccc4C)[C@@H]3C2)CC1 [Example 22, (3aS,4R,7aS)-2-(1-acetylpiperidin-4-yl)-N-{(1R)-1-[3,5-bis(trifluoromethyl)phenyl]ethyl}-N-methyl-4-(2-methylphenyl)octahydro-5H-pyrrolo[3,4-c]pyridine-5-carboxamide]
15 | 9.80 | CC(c1cc(C(F)(F)F)cc(C(F)(F)F)c1)N(C)C(=O)N1CC[C@@H]2CN(C3=CC(=O)CC3)CC2[C@@H]1c1ccc(F)cc1 (stereo partly drawn) [Example 6]
